Activity calls are given as the source filed them.
Tests used:
[1] = biological target: NACHT, LRR and PYD domains-containing protein 3 (Homo sapiens, UniProt Q96P20); assay: NALP3 inhibitors in yeast, dose response, luminescent (AID 488799); assay type: functional
[2] = inhibitors of intracellular T. cruzi replication, confirmation, NIH3T3 host cells, beta-gal luminescence (AID 2044); assay type: functional, cell-based;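 note: intracellular parasites grown in NIH/3T3 mouse fibroblasts as host cells; luminescent beta-galactosidase reporter signal from transgenic T. cruzi replicating inside host cells; inhibitors lower the luminescence signal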
Streptokinase A = biological target: T1, Streptokinase A (Streptococcus pyogenes serotype M1, UniProt P10520); assay: S. pyogenes streptokinase expression inhibitors, potency, dose response, plasminogen activation absorbance, OD405 (AID 1914); assay type: functional, Streptococcus pyogenes M1 GAS;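 note: secreted streptokinase activity via plasminogen activation per viability signal from cell pellet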
T1 sequence (P10520 whole entry): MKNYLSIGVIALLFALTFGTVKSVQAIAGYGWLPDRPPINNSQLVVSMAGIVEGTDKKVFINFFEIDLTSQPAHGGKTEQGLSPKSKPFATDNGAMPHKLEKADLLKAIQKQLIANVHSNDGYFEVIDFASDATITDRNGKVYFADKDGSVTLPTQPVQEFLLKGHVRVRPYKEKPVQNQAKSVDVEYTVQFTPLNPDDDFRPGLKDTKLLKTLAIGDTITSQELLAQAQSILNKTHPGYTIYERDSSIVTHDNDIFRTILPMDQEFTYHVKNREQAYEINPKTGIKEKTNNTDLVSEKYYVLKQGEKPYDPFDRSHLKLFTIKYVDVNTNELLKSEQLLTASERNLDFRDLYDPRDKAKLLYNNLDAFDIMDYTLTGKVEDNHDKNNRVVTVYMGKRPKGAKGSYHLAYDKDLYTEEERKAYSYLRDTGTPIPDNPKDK

[3] = Counterscreen for AddAB inhibitors: absorbance-based bacterial cell-based high throughput dose response assay for inhibitors of bacterial viability. [Related pubchem assays (depositor defined):AID435030, AID449728, AID449731, AID488942, AID488955, AID488956]; assay type: functional
INS1 = assay: beta cell apoptosis inhibitors, cytokine rescue, dose response, luminescence, retest (AID 449756); assay type: functional, cell-based; conditions: Rattus norvegicus;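 note: cell death triggered by IL-1 beta plus TNF-alpha plus IFN-gamma mixture; protective hits raise ATP signal compared with cytokine alone wells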
Exodeoxyribonuclease V = biological target: T2, Exodeoxyribonuclease V (Escherichia coli (strain K12), UniProt P04993+P07648+P08394); assay: E. coli RecBCD inhibitors, dose response, counter-screen for AddAB inhibitor project, absorbance, V66 E. coli, mutant T4 phage (AID 492957); assay type: functional, cell-based, Escherichia coli str. K-12 substr. MG1655
T2 sequence (P04993 whole entry): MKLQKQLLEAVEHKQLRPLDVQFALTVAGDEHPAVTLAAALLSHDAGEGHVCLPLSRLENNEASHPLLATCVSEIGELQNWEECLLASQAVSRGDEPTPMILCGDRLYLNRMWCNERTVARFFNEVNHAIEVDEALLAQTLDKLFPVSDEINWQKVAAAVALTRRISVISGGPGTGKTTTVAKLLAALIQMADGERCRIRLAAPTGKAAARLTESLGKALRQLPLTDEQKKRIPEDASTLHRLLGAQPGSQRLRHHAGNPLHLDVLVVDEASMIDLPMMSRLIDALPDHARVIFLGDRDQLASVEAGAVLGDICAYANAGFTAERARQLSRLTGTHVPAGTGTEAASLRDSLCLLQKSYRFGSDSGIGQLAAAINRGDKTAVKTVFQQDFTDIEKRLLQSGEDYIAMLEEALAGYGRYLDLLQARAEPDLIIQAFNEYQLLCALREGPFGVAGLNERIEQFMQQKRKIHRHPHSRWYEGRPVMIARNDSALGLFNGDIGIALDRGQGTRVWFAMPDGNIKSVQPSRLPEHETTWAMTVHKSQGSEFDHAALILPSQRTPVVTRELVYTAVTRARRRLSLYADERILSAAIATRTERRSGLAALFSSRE
T2 sequence (P07648 whole entry): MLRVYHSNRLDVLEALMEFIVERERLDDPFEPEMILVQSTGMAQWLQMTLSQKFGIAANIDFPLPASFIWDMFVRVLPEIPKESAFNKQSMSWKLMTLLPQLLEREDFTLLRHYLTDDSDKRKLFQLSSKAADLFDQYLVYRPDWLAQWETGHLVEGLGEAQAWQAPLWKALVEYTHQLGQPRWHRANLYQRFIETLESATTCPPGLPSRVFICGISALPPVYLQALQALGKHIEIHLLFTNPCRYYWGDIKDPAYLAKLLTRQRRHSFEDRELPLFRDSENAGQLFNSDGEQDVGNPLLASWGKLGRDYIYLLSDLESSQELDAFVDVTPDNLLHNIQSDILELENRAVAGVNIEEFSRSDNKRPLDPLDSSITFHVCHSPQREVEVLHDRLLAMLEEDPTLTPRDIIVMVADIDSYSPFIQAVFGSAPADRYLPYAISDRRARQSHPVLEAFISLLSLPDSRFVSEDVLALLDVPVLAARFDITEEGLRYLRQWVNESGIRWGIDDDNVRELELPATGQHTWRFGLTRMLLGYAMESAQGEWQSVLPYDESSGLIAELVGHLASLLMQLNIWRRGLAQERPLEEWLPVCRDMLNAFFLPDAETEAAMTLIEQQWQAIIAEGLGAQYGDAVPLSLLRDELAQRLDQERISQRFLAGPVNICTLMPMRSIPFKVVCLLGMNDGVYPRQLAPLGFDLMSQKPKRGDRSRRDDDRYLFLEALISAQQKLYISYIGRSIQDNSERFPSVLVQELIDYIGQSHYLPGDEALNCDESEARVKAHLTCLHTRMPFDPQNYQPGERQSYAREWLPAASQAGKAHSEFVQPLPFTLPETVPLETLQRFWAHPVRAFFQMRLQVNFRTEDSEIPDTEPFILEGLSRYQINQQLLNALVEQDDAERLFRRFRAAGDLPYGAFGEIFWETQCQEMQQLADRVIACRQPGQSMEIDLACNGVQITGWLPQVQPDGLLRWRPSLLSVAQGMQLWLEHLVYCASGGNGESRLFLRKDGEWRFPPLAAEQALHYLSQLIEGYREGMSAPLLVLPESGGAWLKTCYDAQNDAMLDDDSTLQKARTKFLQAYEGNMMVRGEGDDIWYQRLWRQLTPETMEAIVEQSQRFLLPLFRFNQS
T2 sequence (P08394 whole entry): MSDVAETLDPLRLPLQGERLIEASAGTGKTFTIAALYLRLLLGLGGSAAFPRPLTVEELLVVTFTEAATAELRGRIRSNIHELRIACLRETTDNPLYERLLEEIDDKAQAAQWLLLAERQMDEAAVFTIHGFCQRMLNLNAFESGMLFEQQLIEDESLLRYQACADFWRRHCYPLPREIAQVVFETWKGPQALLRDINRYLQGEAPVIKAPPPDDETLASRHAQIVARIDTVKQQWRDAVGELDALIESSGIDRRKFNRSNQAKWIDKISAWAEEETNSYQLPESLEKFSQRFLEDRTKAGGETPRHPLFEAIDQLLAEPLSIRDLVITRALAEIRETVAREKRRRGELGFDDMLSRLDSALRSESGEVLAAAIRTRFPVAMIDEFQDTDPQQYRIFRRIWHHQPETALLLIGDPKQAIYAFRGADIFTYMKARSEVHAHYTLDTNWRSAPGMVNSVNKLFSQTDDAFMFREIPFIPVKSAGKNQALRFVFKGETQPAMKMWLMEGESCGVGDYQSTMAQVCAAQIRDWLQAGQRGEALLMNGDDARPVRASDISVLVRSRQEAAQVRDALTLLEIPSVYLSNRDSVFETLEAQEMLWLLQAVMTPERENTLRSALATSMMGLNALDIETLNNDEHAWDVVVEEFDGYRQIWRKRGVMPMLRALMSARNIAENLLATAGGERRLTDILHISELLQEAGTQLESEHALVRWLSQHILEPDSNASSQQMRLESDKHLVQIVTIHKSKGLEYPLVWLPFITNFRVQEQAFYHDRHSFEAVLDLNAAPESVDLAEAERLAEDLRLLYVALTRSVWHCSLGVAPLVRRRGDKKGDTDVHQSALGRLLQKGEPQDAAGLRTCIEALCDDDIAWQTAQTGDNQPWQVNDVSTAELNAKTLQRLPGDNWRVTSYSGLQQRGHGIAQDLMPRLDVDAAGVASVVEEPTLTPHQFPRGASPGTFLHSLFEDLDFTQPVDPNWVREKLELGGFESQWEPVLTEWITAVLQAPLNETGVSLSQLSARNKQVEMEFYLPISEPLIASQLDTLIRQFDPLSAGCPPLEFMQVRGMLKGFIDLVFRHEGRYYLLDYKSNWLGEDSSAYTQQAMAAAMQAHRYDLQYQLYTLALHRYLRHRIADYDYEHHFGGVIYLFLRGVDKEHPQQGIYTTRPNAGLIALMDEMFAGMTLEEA

[4] = cytotoxicity toward NIH3T3 fibroblasts, dose response, counter-screen, cell-based, ATP luminescence, mouse fibroblasts (AID 2010); assay type: functional;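 note: cells exposed to compound for about 90 hours before reading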
[5] = tested on: Streptococcus sp. 'group A'; assay: growth inhibition of control SK(-) GAS strain, dose response, counter-screen for streptokinase expression inhibitor project, luminescence, kanamycin, BacTiterGlo, confirmation (AID 1900); assay type: functional, organism-based
Streptococcus = assay: Group A Streptococcus viability loss, dose response, counter-screen for streptokinase expression inhibitor project, luminescence, BacTiterGlo (AID 1915); assay type: functional, organism-based;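 note: potency for reduction of bacterial viability or growth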
[6] = biological target: T3, Neuropeptides B/W receptor type 1 (Homo sapiens, UniProt P48145); assay: GPR7 antagonist potency, late-stage follow-up, cell-based, fluorescence, dose response (AID 463251); assay type: functional
T3 sequence (P48145 whole entry): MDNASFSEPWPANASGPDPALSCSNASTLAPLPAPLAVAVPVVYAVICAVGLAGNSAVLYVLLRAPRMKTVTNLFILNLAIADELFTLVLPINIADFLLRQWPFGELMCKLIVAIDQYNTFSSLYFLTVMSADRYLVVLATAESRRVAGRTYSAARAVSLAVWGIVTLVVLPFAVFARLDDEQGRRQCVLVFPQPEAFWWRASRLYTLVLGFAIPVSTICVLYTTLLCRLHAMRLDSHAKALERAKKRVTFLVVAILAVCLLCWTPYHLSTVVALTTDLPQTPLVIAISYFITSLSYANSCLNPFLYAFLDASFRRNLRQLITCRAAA

Sequence of NACHT, LRR and PYD domains-containing protein 3 (Q96P20 whole entry, the tested form may be a part): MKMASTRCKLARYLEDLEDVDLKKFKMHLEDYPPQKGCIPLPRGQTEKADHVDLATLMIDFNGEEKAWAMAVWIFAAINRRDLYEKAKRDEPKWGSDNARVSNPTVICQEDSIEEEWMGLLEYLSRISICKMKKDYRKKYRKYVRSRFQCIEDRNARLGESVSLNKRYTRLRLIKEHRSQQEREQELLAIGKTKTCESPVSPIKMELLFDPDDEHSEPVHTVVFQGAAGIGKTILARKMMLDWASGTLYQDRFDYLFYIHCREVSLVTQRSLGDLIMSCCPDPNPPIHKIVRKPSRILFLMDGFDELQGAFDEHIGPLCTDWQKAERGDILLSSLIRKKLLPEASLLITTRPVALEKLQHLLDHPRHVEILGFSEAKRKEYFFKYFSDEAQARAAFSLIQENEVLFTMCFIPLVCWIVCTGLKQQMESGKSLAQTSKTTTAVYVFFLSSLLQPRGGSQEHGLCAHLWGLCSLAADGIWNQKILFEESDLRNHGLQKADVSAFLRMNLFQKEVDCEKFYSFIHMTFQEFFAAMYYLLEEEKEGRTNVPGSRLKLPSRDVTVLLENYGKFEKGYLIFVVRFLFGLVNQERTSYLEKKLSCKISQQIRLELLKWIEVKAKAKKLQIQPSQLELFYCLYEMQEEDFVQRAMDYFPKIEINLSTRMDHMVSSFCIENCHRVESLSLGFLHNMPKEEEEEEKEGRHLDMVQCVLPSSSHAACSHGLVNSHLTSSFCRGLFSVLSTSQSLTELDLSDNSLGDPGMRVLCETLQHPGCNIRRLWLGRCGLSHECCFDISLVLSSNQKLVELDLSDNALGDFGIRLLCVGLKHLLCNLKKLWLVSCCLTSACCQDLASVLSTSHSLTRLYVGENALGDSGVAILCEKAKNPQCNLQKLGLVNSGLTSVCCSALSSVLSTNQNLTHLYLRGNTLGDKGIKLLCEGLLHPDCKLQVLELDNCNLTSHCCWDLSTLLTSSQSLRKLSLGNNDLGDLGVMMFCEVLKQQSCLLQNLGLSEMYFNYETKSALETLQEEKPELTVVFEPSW

SMILES | IC50 [1] | EC50 [2] | EC50 (Streptokinase A) | IC50 [3] | AC50 (INS1) | IC50 (Exodeoxyribonuclease V) | EC50 [4] | EC50 [5] | EC50 (Streptococcus) | IC50 [6]
N#Cc1ccc(NC(=O)Nc2ccc(Cl)cc2)cc1 | 3.53 µM (active) | 2.67 µM (active) | > 150 µM (not active) | > 119 µM (inactive) | 4 µM (active) | > 119 µM (inactive) | 7.48 µM (active) | 31.4 µM (active) | > 150 µM (not active) | 
COc1ccc(Oc2c(C)cnn(-c3ccccc3)c2=O)cc1 |  |  |  |  |  |  |  |  |  | > 20 µM (inactive)

Reference: ChEMBL document CHEMBL1201862, “PubChem BioAssay data set” (2004)
